Measurements published in patent US20110294843A1, “ADMINISTRATION SCHEME OF POLAR OPIOID METABOLITES FOR POST-OPERATIVE PAIN MANAGEMENT” (PAION UK Limited, priority 2008, published 2011).
Like-named read-outs stand apart in the source and are kept apart here.

Key:
[1] = Pharmacokinetics of M6G at single and multiple intravenous doses in healthy volunteers; format: in vivo, human; details: for half-life / clearance / AUC(0-inf) / Cmax / MRT inf / Vd: both sexes, human, plasma, iv; for half-life: read-out: t½ (converted); for AUC(0-inf): read-out: AUC0-∞; for Cmax: read-out: Cmax; for MRT inf: read-out: MRT0-∞; for Vd: read-out: Vss; for CLss / MRT24-∞: multiple dose, Dose 5-15 mg
Procedure: Healthy male and female subjects were divided into two groups (A and B) with 12 in each. Group A received three single intravenous infusions of M6G over 5 mins at levels of 15, 30 and 45 mg/70 kg in random order, having taken 50 mg of naloxone orally 24 hrs beforehand. There was a seven-day wash-out period between each dose. Blood samples were taken pre-dose and at the following time-points: 3, 5, 15, 30 mins and 1, 2, 3, 4, 6, 12 and 24 hrs after the start of the infusion. Group, B received five, 15 mg/70 kg, intravenous infusions of M6G, each over five minutes, at 6-hourly intervals, having taken a 50 mg oral dose of naloxone 24 hrs before the first infusion. Blood samples were taken before each of the 5 doses, and at 3, 5, 15, 30 mins and at 1, 2, 3 and 4 hrs after the initiation of the 1st and 5th infusions and at 6 hrs after the 5th dose. Vital signs (supine blood pressure, pulse, respiratory rate and oral temperature), respiration rate, pulse oximetry and adverse events were monitored during the study. Plasma levels of M6G were measured using HPLC/ms/ms.

[2] = system: patients with pain treatment after surgery; assay: Meta analysis of four clinical studies with M6G pain treatment after surgery
Source text: The four studies M6G001, M6G012, M6G015 and M6G022 are described in the following.
The following variables were included in the meta analysis:
Nausea (none, mild, moderate, severe)
Sedation (none, mild, moderate, severe)
Pain (none, mild, moderate, severe)

μ-opioid receptor = μ-opioid receptor (Homo sapiens, UniProt P35372); details: cited from earlier work
μ-opioid receptor, sequence (P35372 whole entry, species assumed): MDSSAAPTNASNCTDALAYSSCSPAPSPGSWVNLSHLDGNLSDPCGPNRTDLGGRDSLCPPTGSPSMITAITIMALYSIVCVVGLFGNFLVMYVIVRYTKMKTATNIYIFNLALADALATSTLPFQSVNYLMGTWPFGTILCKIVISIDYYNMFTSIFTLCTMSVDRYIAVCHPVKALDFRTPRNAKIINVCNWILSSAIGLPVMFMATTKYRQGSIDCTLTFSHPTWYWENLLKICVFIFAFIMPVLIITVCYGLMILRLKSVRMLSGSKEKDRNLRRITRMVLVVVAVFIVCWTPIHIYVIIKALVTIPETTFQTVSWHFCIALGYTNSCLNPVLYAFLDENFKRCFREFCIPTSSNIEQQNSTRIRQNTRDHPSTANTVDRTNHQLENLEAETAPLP

[3] = prior experimental human and clinical studies; cited from earlier work
[4] = system: patients following hip-replacement surgery; assay: M6G012 study: acute pain following hip-replacement surgery under general anaesthetic; format: in vivo, human; details: 30 mg/70 kg at skin closure, four hour post-operative period
[5] = Partition coefficient (logP) between aqueous buffer and octanol; details: phosphate/n-octanol
Source text: As stated above, the opioid metabolites according to the invention are polar metabolites. As understood hereinafter the term “polar” means a higher polarity as compared to the unpolar moφhine. The polar nature of a compound can be determined by measuring its partition coefficient between an aqueous buffer and an organic solvent such as octanol. […] This depends on the specific system.

[6] = 15 mg/70 kg, single 5 min iv infusion 15 mg, Median
[7] = 30 mg/70 kg, single 5 min iv infusion 30 mg, Geometric Mean
[8] = 30 mg/70 kg, single 5 min iv infusion 30 mg, Mean
[9] = 30 mg/70 kg, single 5 min iv infusion 30 mg, Median
[10] = 45 mg/70 kg, single 5 min iv infusion 45 mg, Geometric Mean
[11] = 45 mg/70 kg, single 5 min iv infusion 45 mg, Mean
[12] = 45 mg/70 kg, single 5 min iv infusion 45 mg, Median

## CN1CC[C@]23c4c5ccc(O)c4O[C@H]2[C@@H](OC2OC(C(=O)O)C(O)C(O)C2O)C=CC3[C@H]1C5 (stereo partly drawn) [M6G, (5α,6α)-7,8-Didehydro-4,5-epoxy-3-hydroxy-17-methylmorphinan-β-yl-β-D-glucopyranosiduronic acid]
[1]; 15 mg/70 kg, single 5 min iv infusion 15 mg, Mean
  half-life: 1.48 h
[1]; [6]
  clearance: 133 mL/min
  AUC(0-inf): 1880 ng·h/mL
  Cmax: 1650 ng/mL
  MRT inf: 1.69 h
  Vd: 12.6 L
  half-life: 1.56 h
[1]; [7]
  clearance: 121 mL/min
  AUC(0-inf): 4140 ng·h/mL
  Cmax: 3870 ng/mL
  MRT inf: 1.76 h
  Vd: 12.7 L
  half-life: 1.7 h
[1]; [8]
  clearance: 122 mL/min
  AUC(0-inf): 4190 ng·h/mL
  Cmax: 3980 ng/mL
  MRT inf: 1.77 h
  Vd: 12.8 L
  half-life: 1.72 h
[1]; [9]
  clearance: 125 mL/min
  AUC(0-inf): 4000 ng·h/mL
  Cmax: 4110 ng/mL
  MRT inf: 1.81 h
  Vd: 12.2 L
  half-life: 1.81 h
[1]; [10]
  clearance: 128 mL/min
  AUC(0-inf): 5850 ng·h/mL
  Cmax: 5720 ng/mL
  MRT inf: 1.66 h
  Vd: 12.8 L
  half-life: 1.62 h
[1]; [11]
  clearance: 130 mL/min
  AUC(0-inf): 5910 ng·h/mL
  Cmax: 5860 ng/mL
  MRT inf: 1.68 h
  Vd: 12.9 L
  half-life: 1.64 h
[1]; [12]
  clearance: 136 mL/min
  AUC(0-inf): 5500 ng·h/mL
  Cmax: 5860 ng/mL
  MRT inf: 1.78 h
  Vd: 13.1 L
  half-life: 1.69 h
[1]; five 15 mg iv infusions at 6 hour intervals
  accumulation, AUC0-∞: 2.9%
[1]; healthy volunteers, single and multiple iv doses
  safety: No clinically significant safety issues
[1]; Geometric Mean
  CLss: 7261 mL/h
  MRT24-∞: 1.63 h
[1]; Mean
  CLss: 7303 mL/h
  MRT24-∞: 1.65 h
[1]; Median
  CLss: 7173 mL/h
  MRT24-∞: 1.64 h
[2]; human, in vivo, intravenous
  patients with moderate to severe sedation: 63.5%
[2]; time window 0 to 6 hours
  patients with moderate to severe pain: 50.5%
[2]; time window 6-24 hours
  patients with moderate to severe pain: 19.1%
[2]; worst assessment
  patients with moderate to severe nausea: 23.9%
  patients with vomiting: 26.0%
μ-opioid receptor
  affinity for the μ-opioid receptor compared with morphine: comparable affinity
[3]
  potency ratio morphine and M6G: 3 to 1
[4]
  pain (VAS) compared with 10 mg/70 kg morphine at skin closure: non-inferior
[5]
  logP: -2.4
